Test results as given in US11512079B2, “Heterocycle substituted pyridine derivative antifungal agents” (Amplyx Pharmaceuticals, Inc., priority 2017, dated 2022).
Values after ≈ are worked out from the molar mass of the structure shown.

Columns and labels:
Format in all cases: cell-based
[1] = system: Rhizomucor pusillus 46342; assay: In vitro antifungal assay (Example IX), microdilution broth, MEC; settings: minimum effective concentration (shortening of hyphae), 35° C., 40-48 h, RPMI1640
Description: (§1) Measurement of antifungal activity: […] Candida albicans 90028, Aspergillus fumigatus MYA3626, Rhizomucor pusillus 46342 and Cryptococcus neoformans […] strains were obtained from American Type Culture Collection (ATCC). […] (A. fumigatus) and 35° C. (R. pusillus). Water containing 1% Tween was directly added to the agar plate and gently agitated to wet and remove the Aspergillus conidia. For R. pusillus, water was added to the surface and gently massaged to wet and remove the spores. For both species, the conidia or spores and mycelial fragments were collected, followed by removal of mycelium, conidiophores and large clumps of conidia/spores. The resulting spore suspension was counted and diluted into RPMI1640 medium to adjust to a final suspension of 1-2×10^4 spores/mL. The suspension was used in the MEC measurement as described below. […] The compounds were weighed and DMSO was added to prepare a 10 mg/mL stock. The solutions were mixed by vortexing and sonication at 37° C. for 5-10 mins. The resulting solutions were sterile filtered using a PTFE filter, and aliquoted (12 μL or as needed) and stored at -20° C. Intermediate compound dilutions were prepared in sterile polypropylene tubes in 100% DMSO. […] This was validated by thorough mixing and reading at 600 nm on a microplate reader. The minimum concentration that led to shortening of hyphae as compared to hyphal growth in DMSO control wells was determined as the minimum effective concentration (MEC) for A. fumigatus and R. pusillus (as read for echinocandins). The use of the MIC and MEC endpoints against yeasts and molds, respectively has been described by Pfaller M A, Duncanson F, Messer S A, Moet G J, Jones […]. Antimicrob Agents Chemother. 2011. 55(11):5155-8. In vitro activity of a novel broad-spectrum antifungal, […], tested against Aspergillus spp. determined by CLSI and EUCAST broth microdilution methods. Results are shown in Table 2, and the letters indicate the following ranges in μg/mL: […]

[2] = system: Aspergillus fumigatus MYA3626; assay: as above; settings: minimum effective concentration (shortening of hyphae), 35° C., 40-48 h, RPMI1640
Description: as §1

[3] = system: Candida albicans 90028; assay: In vitro antifungal assay (Example IX), microdilution broth, MIC; settings: minimum inhibitory concentration (≥50% inhibition), 35° C., 40-48 h, RPMI1640
Description: Measurement of antifungal activity: Antifungal activity of the compounds was evaluated in a microdilution broth assay as per Clinical and Laboratory Standard Institute methodology for yeast (for Candida and Cryptococcus) (1) and molds (for Aspergillus and Rhizomucor) (2). Candida albicans 90028, Aspergillus fumigatus MYA3626, Rhizomucor pusillus 46342 and Cryptococcus neoformans H99 strains were obtained from American Type Culture Collection (ATCC).
Preparation of Fungal Suspension. C. albicans 90028 and C. neoformans H99 strains were streaked from frozen stocks at −80° C. onto Sabouraud Dextrose Agar (SDA) plates. These were allowed to grow for 24 h (C. albicans) and 48 h (C. neoformans) at 35° C. before using them in the assay. 5-6 individual colonies were picked and diluted into sterile water to obtain a fungal suspension. The cell density of the suspension was determined and the culture diluted with RPMI1640 medium to obtain a fungal suspension of 2.5×10^3 cells/mL. The suspension was used in the MIC measurement as described below.
Preparation of Compound Stocks and Intermediate Dilutions: The compounds were weighed and DMSO was added to prepare a 10 mg/mL stock. The solutions were mixed by vortexing and sonication at 37° C. for 5-10 mins. The resulting solutions were sterile filtered using a PTFE filter, and aliquoted (12 μL or as needed) and stored at −20° C. Intermediate compound dilutions were prepared in sterile polypropylene tubes in 100% DMSO. The compound stock solution was first diluted in DMSO to obtain a concentration of […] to 0.19 μg/mL.
MIC/MEC Measurement: 99 μL 1 of the fungal suspension in RPMI1640 prepared as above was added to each well of a 96-well round bottom assay plate. 1 μL of the intermediate compound dilutions (200-0.19 μg/mL) were added to wells of the plate. This led to a 100-fold dilution of the intermediate dilutions resulting in a final compound concentration of 2-0.0019 μg/mL in the plate. 1 μL of DMSO was added to “No drug” control wells. The solutions were mixed by shaking on a plate shaker for 10 mins and plates incubated at 35° C. for 40-48 h (C. albicans, A. fumigatus, R. pusillus) and 72 h (Cryptococcus). […] This was validated by thorough mixing and reading at 600 nm on a microplate reader. The minimum concentration that led to shortening of hyphae as compared to hyphal growth in DMSO control wells was determined as the minimum effective concentration (MEC) for A. fumigatus and R. pusillus (as read for echinocandins). The use of the MIC and MEC endpoints against yeasts and molds, respectively has been described by Pfaller M A, Duncanson F, Messer S A, Moet G J, Jones R N, Castanheira M. Antimicrob Agents Chemother. 2011. 55(11):5155-8. In vitro activity of a novel broad-spectrum antifungal, E1210, tested against Aspergillus spp. determined by CLSI and EUCAST broth microdilution methods. Results are shown in Table 2, and the letters indicate the following ranges in μg/mL: […]

| Structure (SMILES) | MIC [3] | minimal effective concentration [1] | minimal effective concentration [2] |
| --- | --- | --- | --- |
| Nc1ncccc1-c1cc(Cc2ccc(CCl)cc2)no1 [B, 3-(3-(4-(chloromethyl)benzyl)isoxazol-5-yl)pyridin-2-amine] | > 1 µg/mL | > 1 µg/mL | 0.1 to 1 µg/mL |
| Nc1ncccc1-c1cc(Cc2ccc(O)cc2)no1 [C, 4-((5-(2-aminopyridin-3-yl)isoxazol-3-yl)methyl)phenol] | > 1 µg/mL | > 1 µg/mL | 0.1 to 1 µg/mL |
| Nc1ncccc1-c1cc(Cc2ccc(CNc3nc4ccccc4[nH]3)cc2)no1 [Example 145, N-(4-((5-(2-aminopyridin-3-yl)isoxazol-3-yl)methyl)benzyl)-1H-benzo[d]imidazol-2-amine] | > 1 µg/mL | > 1 µg/mL | > 1 µg/mL |
| Cn1ccc(Cc2ccc(Cc3cc(-c4cccnc4N)on3)cc2)n1 [Example 152, 3-(3-(4-((1-methyl-1H-pyrazol-3-yl)methyl)benzyl)isoxazol-5-yl)pyridin-2-amine] | 0.01 to 0.1 µg/mL (≈ 0.029 to 0.29 µM) | > 1 µg/mL | 0.01 to 0.1 µg/mL |
| CC(C)=CCOc1ccc(Cc2cc(-c3cccnc3N)on2)cn1 [Example 166, 3-(3-((6-((3-methylbut-2-en-1-yl)oxy)pyridin-3-yl)methyl)isoxazol-5-yl)pyridin-2-amine] | 0.1 to 1 µg/mL (≈ 0.297 to 2.97 µM) | 0.1 to 1 µg/mL | 0.01 to 0.1 µg/mL |
| Nc1ncccc1-c1cc(Cc2ccc(Cn3ncc4ccccc43)cc2)no1 [Example 170, 3-(3-(4-((1H-indazol-1-yl)methyl)benzyl)isoxazol-5-yl)pyridin-2-amine] | 0.1 to 1 µg/mL (≈ 0.262 to 2.62 µM) | 0.1 to 1 µg/mL | 0.1 to 1 µg/mL |
| Nc1ncccc1-c1cc(Cc2ccc(Cn3cc4ccccc4n3)cc2)no1 [Example 171, 3-(3-(4-((2H-indazol-2-yl)methyl)benzyl)isoxazol-5-yl)pyridin-2-amine] | 0.01 to 0.1 µg/mL (≈ 0.0262 to 0.262 µM) | 0.1 to 1 µg/mL | 0.1 to 1 µg/mL |
| Nc1ncccc1-c1cnn(Cc2ccc(Oc3ccccc3)nc2)c1 [compound 63, 3-(1-((6-phenoxypyridin-3-yl)methyl)-1H-pyrazol-4-yl)pyridin-2-amine] | 0.1 to 1 µg/mL (≈ 0.291 to 2.91 µM) | > 1 µg/mL | – |
| c1ccc(Oc2ccc(Cn3cc(-c4cccnc4)cn3)cn2)cc1 [compound 64, 2-phenoxy-5-((4-(pyridin-3-yl)-1H-pyrazol-1-yl)methyl)pyridine] | 0.1 to 1 µg/mL (≈ 0.305 to 3.05 µM) | > 1 µg/mL | – |
| Nc1ncccc1-c1cc(Cc2ccc(OCCc3cccc(F)c3)nc2)no1 [compound 91, 3-(3-((6-(3-fluorophenethoxy)pyridin-3-yl)methyl)isoxazol-5-yl)pyridin-2-amine] | – | > 1 µg/mL | – |
| Nc1ncccc1-c1cc(Cc2ccc(OCc3cc(Cl)ccn3)nc2)no1 [compound 92, 3-(3-((6-((4-chloropyridin-2-yl)methoxy)pyridin-3-yl)methyl)isoxazol-5-yl)pyridin-2-amine] | – | 0.1 to 1 µg/mL | – |
| Nc1ncccc1-c1cc(Cc2ccc(CNc3nc(=O)[nH]cc3F)cc2)no1 [compound 232, 4-((4-((5-(2-aminopyridin-3-yl)isoxazol-3-yl)methyl)benzyl)amino)-5-fluoropyrimidin-2(1H)-one] | > 1 µg/mL | – | > 1 µg/mL |

Further lines, with some results ahead:

| MIC [3] | Structure (SMILES) | minimal effective concentration [1] | minimal effective concentration [2] |
| --- | --- | --- | --- |
| > 1 µg/mL | Nc1ncccc1-c1cc(Cc2ccc(F)nc2)no1 [E, 3-(3-((6-fluoropyridin-3-yl)methyl)isoxazol-5-yl)pyridin-2-amine] | > 1 µg/mL | > 1 µg/mL |
| > 1 µg/mL | Nc1ncccc1-c1cc(Cc2cccc(OCCc3cccc(F)c3)n2)no1 [Example 147, 3-(3-((6-(3-fluorophenethoxy)pyridin-2-yl)methyl)isoxazol-5-yl)pyridin-2-amine] | > 1 µg/mL | > 1 µg/mL |
| 0.1 to 1 µg/mL (≈ 0.244 to 2.44 µM) | Nc1ncccc1-c1cc(Cc2ccc(Cc3cccc(C(F)(F)F)n3)cc2)no1 [Example 151, 3-(3-(4-((6-(trifluoromethyl)pyridin-2-yl)methyl)benzyl)isoxazol-5-yl)pyridin-2-amine] | 0.1 to 1 µg/mL | 0.1 to 1 µg/mL |
| 0.1 to 1 µg/mL (≈ 0.266 to 2.66 µM) | Nc1ncccc1-c1cc(Cc2ccc(NCc3ccc(F)cc3)nc2)no1 [Example 153, 5-((5-(2-aminopyridin-3-yl)isoxazol-3-yl)methyl)-N-(4-fluorobenzyl)pyridin-2-amine] | > 1 µg/mL | 0.01 to 0.1 µg/mL |
| > 1 µg/mL | Cc1ncsc1CCOc1ccc(Cc2cc(-c3cccnc3N)on2)cn1 [Example 155, 3-(3-((6-(2-(4-methylthiazol-5-yl)ethoxy)pyridin-3-yl)methyl)isoxazol-5-yl)pyridin-2-amine] | > 1 µg/mL | > 1 µg/mL |
| 0.1 to 1 µg/mL (≈ 0.235 to 2.35 µM) | Nc1ncccc1-c1cc(Cc2ccc(OCCc3cc(F)c(F)cc3F)nc2)no1 [Example 158, 3-(3-((6-(2,4,5-trifluorophenethoxy)pyridin-3-yl)methyl)isoxazol-5-yl)pyridin-2-amine] | > 1 µg/mL | 0.1 to 1 µg/mL |
| 0.1 to 1 µg/mL (≈ 0.235 to 2.35 µM) | Nc1ncccc1-c1cc(Cc2ccc(OCCc3c(F)cccc3Cl)nc2)no1 [Example 159, 3-(3-((6-(2-chloro-6-fluorophenethoxy)pyridin-3-yl)methyl)isoxazol-5-yl)pyridin-2-amine] | > 1 µg/mL | 0.1 to 1 µg/mL |
| 0.01 to 0.1 µg/mL (≈ 0.0265 to 0.265 µM) | Nc1ncccc1-c1cc(Cc2ccc(OCc3ncccc3F)nc2)no1 [Example 162, 3-(3-((6-((3-fluoropyridin-2-yl)methoxy)pyridin-3-yl)methyl)isoxazol-5-yl)pyridin-2-amine] | > 1 µg/mL | 0.1 to 1 µg/mL |
| > 1 µg/mL | CC(C)(COc1ccc(Cc2cc(-c3cccnc3N)on2)cn1)c1ccccc1 [Example 163, 3-(3-((6-(2-methyl-2-phenylpropoxy)pyridin-3-yl)methyl)isoxazol-5-yl)pyridin-2-amine] | 0.1 to 1 µg/mL | 0.1 to 1 µg/mL |
| > 1 µg/mL | Nc1ncccc1-c1cc(Cc2ccc(OCc3cccc4ccccc34)nc2)no1 [Example 164, 3-(3-((6-(naphthalen-1-ylmethoxy)pyridin-3-yl)methyl)isoxazol-5-yl)pyridin-2-amine] | > 1 µg/mL | 0.1 to 1 µg/mL |
| 0.1 to 1 µg/mL (≈ 0.255 to 2.55 µM) | Nc1ncccc1-c1cc(Cc2ccc(CNc3cc(F)cc(F)c3)cc2)no1 [Example 167, 3-(3-(4-(((3,5-difluorophenyl)amino)methyl)benzyl)isoxazol-5-yl)pyridin-2-amine] | 0.1 to 1 µg/mL | 0.01 to 0.1 µg/mL |
